The values that follow come from PMC9865825, “Synthesis and Antiparasitic Activity of New Trithiolato-Bridged Dinuclear Ruthenium(II)-arene-carbohydrate Conjugates” (Molecules, 2023).

The viability is a per cent measure of how many cells are alive, often set against a control. One may read the IC50 as the point on the concentration scale where inhibition reaches its midpoint. Read a high IC50 as weaker potency in that assay.

Data set [1] has as its system T. gondii β-gal tachyzoites. The experiment in a line: In vitro proliferation of T. gondii β-gal tachyzoites in HFF, β-galactosidase colorimetric test (primary screening and IC50). The class given is cell-based, Toxoplasma gondii. The settings on record: for T. Gondii β-gal Growth (%): 72 h, tachyzoites in HFF, vs 0.1% DMSO control = 100%. As for the experimental part: In a primary screening, each compound was evaluated at two concentrations 0.1 and 1 µM and added to the media prior to the infection as previously described. Control non-infected non-treated HFF cultures and T. gondii β-gal infected but not-treated cultures were cultivated in complete medium containing 0.01 or 0.1% DMSO. The 96-well plates were incubated for 72 h at 37 °C/5% CO2 as previously described.
For the IC50 determination on T. gondii β-gal, eight serial concentrations ranging from 7 nM to 1 μM were tested for each selected compound as previously described and the β-galactosidase assay was performed as reported. Briefly, infected HFF cultures in 96-well plates were lysed with PBS containing 0.05% Triton X-100. Then the substrate chlorophenolred-β-D-galactopyranoside (CPRG; Roche Diagnostics, Rotkreuz, Switzerland) was added in a final concentration of 0.5 mM. Absorption was measured at 570 nm wavelength using an EnSpire® multimode plate reader (PerkinElmer, Inc., Waltham, MA, USA).

A short description of data set [2]: in vitro. The conditions noted are these: human. As for the experimental part: (§1) The viability of treated HFF was measured by the alamarBlue metabolic assay, and the proliferation of T. gondii β-gal was quantified by the β-galactosidase colorimetric test. In both cases, results are expressed as percentage (%) compared to control parasitic and host cells treated with 0.1% DMSO for which proliferation and viability were set to 100% (Table 1).
(§2) All tissue culture media were purchased from Gibco-BRL, and biochemical agents from Sigma-Aldrich. […] Transgenic T. gondii β-gal tachyzoites (expressing the β-galactosidase gene from Escherichia coli) from RH strain were kindly provided by Prof.
(§3) The screening sequence for the compounds was described in previous reports. All compounds were prepared as 1 mM stock solutions from powder in dimethyl sulfoxide (DMSO, Sigma, St. Louis, MO, USA). For in vitro activity and cytotoxicity assays, HFF were seeded at 5 × 10^3/well in 96 well plates and allowed to grow to confluence in complete culture medium at 37 °C and 5% CO2.
(§4) All calculations were performed using the corresponding software tool contained in the Excel software package (Microsoft, Redmond, WA, USA). […] Then the medium was removed, the plates were washed once with PBS and 200 μL of resazurin (1:200 dilution in PBS) were added to each well. […] Fluorescence was measured at two different time points: T0 as starting timepoint and T5h as at 5 h later. Relative fluorescence units were calculated from time points with linear increases.

Data set [3] has as its system human foreskin fibroblasts (HFF). The experiment in a line: in vitro. As for the experimental part: as §1, §2, §3, §4
Data set [4] in a line: Stability in DMSO-d6 followed by 1H NMR. The conditions noted are these: 25 °C, 5 min and more than 1 month after sample preparation.

Take `CC(=O)OC[C@H]1O[C@@H](N=[N+]=[N-])[C@H](OC(C)=O)[C@@H](OC(C)=O)[C@@H]1OC(C)=O` [Compound 10, 2,3,4,6-tetra-O-acetyl-β-D-glucopyranosyl azide]: the “T. Gondii β-gal Growth (%)” value in data set [1] (0.1 µM) was determined as 101 ± 1%. Moreover, the “T. Gondii β-gal Growth (%)” value in data set [1] (1 µM) is on record as 99 ± 0%. The “Antiparasitic activity (in words)” value in data set [1] (0.1 and 1 µM) was “neither antiparasitic activity”. In data set [2], this compound came in with a viability at 72 h, 0.1 µM of 98 ± 1% and a viability at 72 h, 1 µM of 99%.
Consider `CC(=O)OC[C@H]1O[C@@H](OCCCc2cn(Cc3ccccc3[S-])nn2)[C@H](OC(C)=O)[C@@H](OC(C)=O)[C@H]1OC(C)=O.CC(C)(C)c1ccc(C[S-])cc1.CC(C)(C)c1ccc(C[S-])cc1.Cc1ccc(C(C)C)cc1.Cc1ccc(C(C)C)cc1.[Cl-].[Ru+2].[Ru+2]` [Compound 26], for which the “T. Gondii β-gal Growth (%)” value came to 89 ± 1% in data set [1] (0.1 µM) and 0 ± 0% in data set [1] (1 µM). In data set [1] (T. gondii β-gal, pyrimethamine IC50 = 0.326 µM), the “IC50 fold lower compared to pyrimethamine” value worked out at 2 fold. In data set [1] (eight serial concentrations 7 nM to 1 µM), this compound showed a half-maximal inhibitory concentration (IC50) of 153 nM. In addition, the results for the “HFF Viability (%)” value in data set [3] (0.1 µM) and in data set [3] (1 µM) were 98 ± 1% and 99 ± 1%, respectively. Moreover, the “HFF Viability at 2.5 µM (%)” value in data set [3] (2.5 µM) is 97%. In data set [4], the “Stability in DMSO-d6 (1H NMR spectra)” value is “no significant modifications”.
